In data set [1] the test system is human glioblastoma cell line U87 Flue. The experiment in a line: Brain tumor-bearing SCID mice (U87 Flue glioblastoma), 80-day survival and tumor progression study.
Description: The U87 Flue cell line was created by stably transducing U87 cells with a lentiviral construct containing the luc gene.
The next data set deals with malignant brain tumor. The experiment in a line: Clinical study of CRF in patients with malignant brain tumor (tumor size by MRI, survival). Type of data set: in vivo, human. The protocol: Patients with malignant brain tumor were treated with 2 mg/day (1 mg dose, twice daily) of either human CRF subcutaneously. […] Additionally, of the 30 patients who had received treatment for at least 6 months, 10 experienced a decrease in tumor size.

A further data set relates to peritumoral edema. The conditions noted are these: patients with peritumoral edema; cited from earlier work.
[2] abbreviates: high dose of CRF, 80-day study period.

Consider `O=NN(CCCl)C(=O)NCCCl` [BiCNU, reference compound], for which the “brain tumor growth / response to treatment (photon emission)” value in data set [1] (chemotherapeutic agents, TMZ: all mice but one) is reported as “continued to grow”.

For the molecule `Cn1nnc2c(C(N)=O)ncn2c1=O` [TMZ, reference compound], the “mice still alive at the end of the 80-day study period” value in data set [1] (TMZ-treated mice) was 40%.

Consider “CRF: endogenous 41 amino acid peptide, the major hypothalamic hormone responsible for stimulation of the pituitary-adrenal axis”, for which the “survival over the 80-day study period” value in data set [1] (high dose of CRF, 100 μg/kg s.c. twice daily, all mice) is on record as “survived the entire 80-day study period”. For the same molecule, in data set [1] (setting [2]), the “brain tumor progression (luminescence imaging)” value is reported as “did not progress during the 80-day study period” and the “health appearance of the mice during the study” value is on record as “appeared healthy throughout”. Besides, in data set [1] (low dose of CRF), the “brain tumor progression (luminescence imaging)” value is given as “did not progress or progressed more slowly”; the mean survival time entry is “between mice, that were administered a high dose of CRF, and mice that had received no treatment or were administered dexamethasone”; the “mice still alive at the end of the 80-day study period” value amounted to 60%. In addition, the “patients exhibiting a reduction in tumor size of around 90%” value with malignant brain tumor (FIG. 2 patients, 2 mg/day s.c.) is listed as “two”. Also, the “survival of some patients after CRF treatment” value in the data set on malignant brain tumor (FIGS. 1 and 2) is recorded as 1-2 years. In the data set with malignant brain tumor (FIGS. 1 and 2, projected survival 3-6 months), the “survival of the overwhelming majority of patients” value is reported as “live well beyond the projected 3-6 months”. The “metastatic patients exhibiting survival beyond the projected 3-6 months” value in the data set with malignant brain tumor (of the 3 metastatic patients in FIG. 3) was found to be 3 patients. Also, the “metastatic patients showing a reduction in tumor size at the last timepoint measured” value with malignant brain tumor (of the 3 metastatic patients in FIG. 3, 2 mg/day s.c.) is given as 2 patients. The “patients exhibiting a reduction in tumor size at the last time point measured” value with malignant brain tumor (of the 10 patients in FIG. 2, 2 mg/day s.c.) worked out at 8 patients. For the same molecule, in the data set on malignant brain tumor (of the 20 patients in FIG. 1, 2 mg/day s.c.), the “patients exhibiting a maintenance in tumor size” value was 5 patients. In addition, the “patients exhibiting a reduction in tumor size” value with malignant brain tumor (of the 20 patients in FIG. 1, 2 mg/day s.c. (1 mg twice daily)) is given as 6 patients. Further, in the data set with malignant brain tumor (of the 20 patients in FIG. 1, after 9 months of treatment, 2 mg/day s.c.), the “patients exhibiting a reduction in tumor size by over 50%” value came out at 3 patients. Further, the “patients experiencing a decrease in tumor size” value in the data set on malignant brain tumor (of the 30 patients treated for at least 6 months) was 10 patients.

Take corticorelin acetate: in the data set on peritumoral edema, the exposure to dexamethasone entry is reported as “reduced exposure to dexamethasone” and the steroid-related side effects entry was “improvement in steroid-related side effects”.

The record behind these values is patent US7816323B2, “Methods of using corticotropin-releasing factor for the use of the treatment of cancer” (priority 2008, dated 2010).
